In ChEMBL document CHEMBL1201862, “PubChem BioAssay data set” (2004):
Blank lines part the entries; values can stand above or below the molecule they belong to. Activity calls are given as the source filed them.

What was measured:
Hexokinase HKDC1 = Hexokinase HKDC1 (Homo sapiens, UniProt Q2TB90); test: HKDC1 hexokinase activators, dose response, biochemical, W721R variant (AID 504730); assay type: functional
Hexokinase-1 = Hexokinase-1 (Homo sapiens, UniProt P19367); test: hexokinase 1 activators, dose response, selectivity assay for HKDC1 activator project, biochemical (AID 504762); assay type: functional
Sequence of Hexokinase-1 (P19367 whole entry, the tested form may be a part): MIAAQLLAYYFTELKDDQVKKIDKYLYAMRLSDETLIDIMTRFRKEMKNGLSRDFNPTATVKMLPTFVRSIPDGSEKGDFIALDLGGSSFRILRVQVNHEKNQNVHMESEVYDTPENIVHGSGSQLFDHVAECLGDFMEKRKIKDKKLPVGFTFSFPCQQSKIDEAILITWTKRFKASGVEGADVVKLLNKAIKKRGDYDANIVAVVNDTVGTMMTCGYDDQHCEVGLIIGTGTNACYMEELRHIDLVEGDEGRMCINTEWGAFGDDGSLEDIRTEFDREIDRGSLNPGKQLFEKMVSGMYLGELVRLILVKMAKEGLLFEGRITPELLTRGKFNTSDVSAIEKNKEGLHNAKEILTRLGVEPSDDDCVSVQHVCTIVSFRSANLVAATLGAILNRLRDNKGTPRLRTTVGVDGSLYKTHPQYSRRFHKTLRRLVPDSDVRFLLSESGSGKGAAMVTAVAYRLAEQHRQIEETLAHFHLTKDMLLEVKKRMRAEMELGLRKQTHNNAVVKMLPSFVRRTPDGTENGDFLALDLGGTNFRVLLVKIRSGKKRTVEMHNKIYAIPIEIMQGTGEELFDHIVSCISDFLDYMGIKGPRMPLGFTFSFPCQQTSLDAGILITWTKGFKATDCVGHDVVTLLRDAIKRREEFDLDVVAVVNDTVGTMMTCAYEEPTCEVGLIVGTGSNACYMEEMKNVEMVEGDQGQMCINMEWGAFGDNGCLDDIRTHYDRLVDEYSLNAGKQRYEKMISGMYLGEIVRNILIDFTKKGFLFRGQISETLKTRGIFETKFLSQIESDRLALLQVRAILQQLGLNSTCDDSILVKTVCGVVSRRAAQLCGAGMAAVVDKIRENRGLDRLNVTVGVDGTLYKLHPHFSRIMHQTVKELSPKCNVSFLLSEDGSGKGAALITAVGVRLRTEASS

[1] = target: T1, Runt-related transcription factor 1/Core-binding factor subunit beta (Homo sapiens, UniProt Q01196+Q13951); test: Confirmation of compounds inhibiting the binding between the RUNX1 Runt domain and CBFb-SMMHC via a fluorescence resonance energy transfer (FRET) assay. [Related pubchem assays (depositor defined):AID1434, AID1438, AID1496, AID1550, AID1645]; assay type: protein assay
T1 sequence (Q01196 whole entry, the tested form may be a part): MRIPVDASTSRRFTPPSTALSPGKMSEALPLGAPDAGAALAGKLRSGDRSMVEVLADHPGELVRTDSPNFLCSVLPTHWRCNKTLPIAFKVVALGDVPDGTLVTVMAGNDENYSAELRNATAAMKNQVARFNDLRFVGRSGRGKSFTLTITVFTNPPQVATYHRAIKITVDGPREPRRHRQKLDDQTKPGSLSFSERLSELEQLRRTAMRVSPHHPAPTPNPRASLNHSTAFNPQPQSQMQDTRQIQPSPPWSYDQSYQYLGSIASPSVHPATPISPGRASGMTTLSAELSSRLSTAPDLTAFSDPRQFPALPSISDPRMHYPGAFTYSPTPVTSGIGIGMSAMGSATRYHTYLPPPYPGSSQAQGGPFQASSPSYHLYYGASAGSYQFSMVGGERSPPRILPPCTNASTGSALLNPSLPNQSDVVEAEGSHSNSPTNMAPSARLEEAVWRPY
T1 sequence (Q13951 whole entry, the tested form may be a part): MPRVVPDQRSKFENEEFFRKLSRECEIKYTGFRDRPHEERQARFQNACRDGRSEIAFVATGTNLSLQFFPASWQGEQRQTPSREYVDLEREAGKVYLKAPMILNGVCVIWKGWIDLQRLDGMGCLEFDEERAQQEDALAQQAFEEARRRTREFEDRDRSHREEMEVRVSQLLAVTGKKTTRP

[2] = target: T1, Runt-related transcription factor 1/Core-binding factor subunit beta; test: inhibitors of RUNX1 Runt–CBFb-SMMHC binding, primary screen, biochemical, FRET, Cerulean-Runt, Venus-CBFb-SMMHC, uHTS (AID 1434); assay type: protein assay;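 also: partner is the CBFb-SMMHC leukemia fusion protein rather than wild-type CBFb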
[3] = target: T1, Runt-related transcription factor 1/Core-binding factor subunit beta; test: inhibitors of RUNX1 Runt–CBFb-SMMHC binding, biochemical, TR-FRET (AID 1438); assay type: protein assay
[4] = target: T1, Runt-related transcription factor 1/Core-binding factor subunit beta; test: Confirmation of compounds inhibiting the binding between the RUNX1 Runt domain and CBFb-SMMHC via a time resolved fluorescence resonance energy transfer (TR-FRET) assay. [Related pubchem assays (depositor defined):AID1434, AID1438, AID1496, AID1560, AID1645]; assay type: protein assay
[5] = target: Dual specificity tyrosine-phosphorylation-regulated kinase 1A (Rattus norvegicus, UniProt Q63470); assay type: biochemical, Homo sapiens
[6] = target: Intestinal-type alkaline phosphatase (Homo sapiens, UniProt P09923); test: activation of human intestinal alkaline phosphatase – biochemical, dose response (AID 488873); assay type: functional
Sequence of Intestinal-type alkaline phosphatase (Homo sapiens, UniProt P09923) (P09923 whole entry): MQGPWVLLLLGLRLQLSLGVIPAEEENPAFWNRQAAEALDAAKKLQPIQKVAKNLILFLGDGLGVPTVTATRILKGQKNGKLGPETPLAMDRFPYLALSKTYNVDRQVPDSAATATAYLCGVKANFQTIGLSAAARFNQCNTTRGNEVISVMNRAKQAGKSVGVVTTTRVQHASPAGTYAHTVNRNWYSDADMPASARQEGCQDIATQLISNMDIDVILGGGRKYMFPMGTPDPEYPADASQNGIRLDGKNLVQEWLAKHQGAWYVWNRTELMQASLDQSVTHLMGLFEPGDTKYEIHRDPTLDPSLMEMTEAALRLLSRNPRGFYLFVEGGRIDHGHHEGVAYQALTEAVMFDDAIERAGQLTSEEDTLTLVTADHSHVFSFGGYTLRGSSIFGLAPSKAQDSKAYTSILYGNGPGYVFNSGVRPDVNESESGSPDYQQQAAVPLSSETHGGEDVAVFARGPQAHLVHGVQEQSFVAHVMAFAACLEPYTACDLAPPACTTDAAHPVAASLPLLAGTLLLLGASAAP

[7] = target: Intestinal-type alkaline phosphatase (Mus musculus, UniProt P24822); test: mouse intestinal alkaline phosphatase activators, dose response, biochemical, luminescence, uHTS hits (AID 488783); assay type: functional
Sequence of Intestinal-type alkaline phosphatase (Mus musculus, UniProt P24822) (P24822 whole entry): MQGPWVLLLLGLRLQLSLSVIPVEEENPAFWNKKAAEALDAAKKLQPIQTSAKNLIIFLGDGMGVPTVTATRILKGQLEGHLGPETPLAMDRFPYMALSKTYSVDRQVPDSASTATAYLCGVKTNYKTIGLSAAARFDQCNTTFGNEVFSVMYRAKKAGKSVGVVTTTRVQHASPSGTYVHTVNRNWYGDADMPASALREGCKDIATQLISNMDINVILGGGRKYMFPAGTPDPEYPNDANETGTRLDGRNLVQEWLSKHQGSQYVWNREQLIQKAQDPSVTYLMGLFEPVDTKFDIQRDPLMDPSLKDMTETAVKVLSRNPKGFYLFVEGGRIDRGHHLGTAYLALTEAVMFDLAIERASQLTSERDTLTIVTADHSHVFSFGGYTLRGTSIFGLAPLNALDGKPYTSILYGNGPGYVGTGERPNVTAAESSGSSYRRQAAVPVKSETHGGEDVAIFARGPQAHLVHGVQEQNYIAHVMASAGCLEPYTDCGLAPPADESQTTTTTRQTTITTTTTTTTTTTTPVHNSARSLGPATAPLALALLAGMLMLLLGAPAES

[8] = target: T2, Alkaline phosphatase, tissue-nonspecific isozyme (Homo sapiens, UniProt P05186); test: TNAP enzyme activators, dose response, selectivity assay for mouse IAP activator project, biochemical, TNAP isozyme, mouse IAP uHTS hits (AID 488880); assay type: functional
T2 sequence (P05186 whole entry): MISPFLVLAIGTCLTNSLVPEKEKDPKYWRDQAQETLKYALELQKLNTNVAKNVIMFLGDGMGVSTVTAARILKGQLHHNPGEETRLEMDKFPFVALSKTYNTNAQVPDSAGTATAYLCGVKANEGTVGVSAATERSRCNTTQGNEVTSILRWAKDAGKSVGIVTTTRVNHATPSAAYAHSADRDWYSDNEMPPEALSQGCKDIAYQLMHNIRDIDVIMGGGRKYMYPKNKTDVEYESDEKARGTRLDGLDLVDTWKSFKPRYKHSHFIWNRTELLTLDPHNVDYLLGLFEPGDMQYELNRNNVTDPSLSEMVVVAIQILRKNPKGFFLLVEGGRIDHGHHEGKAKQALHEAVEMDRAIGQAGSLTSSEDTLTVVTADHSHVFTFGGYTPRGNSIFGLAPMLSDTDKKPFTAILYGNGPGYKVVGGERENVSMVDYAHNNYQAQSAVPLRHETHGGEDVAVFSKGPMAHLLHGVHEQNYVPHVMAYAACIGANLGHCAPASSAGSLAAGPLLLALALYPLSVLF

[9] = target: T3, Tyrosine-protein phosphatase non-receptor type 22 (Homo sapiens, UniProt Q9Y2R2); test: SAR LYP1 Fluorescent Assay using pCAP substrate for In Vitro dose response studies - Set 2. [Related pubchem assays (depositor defined):AID1779, AID1784, AID2135, AID449727]; assay type: functional
T3 sequence (Q9Y2R2 whole entry): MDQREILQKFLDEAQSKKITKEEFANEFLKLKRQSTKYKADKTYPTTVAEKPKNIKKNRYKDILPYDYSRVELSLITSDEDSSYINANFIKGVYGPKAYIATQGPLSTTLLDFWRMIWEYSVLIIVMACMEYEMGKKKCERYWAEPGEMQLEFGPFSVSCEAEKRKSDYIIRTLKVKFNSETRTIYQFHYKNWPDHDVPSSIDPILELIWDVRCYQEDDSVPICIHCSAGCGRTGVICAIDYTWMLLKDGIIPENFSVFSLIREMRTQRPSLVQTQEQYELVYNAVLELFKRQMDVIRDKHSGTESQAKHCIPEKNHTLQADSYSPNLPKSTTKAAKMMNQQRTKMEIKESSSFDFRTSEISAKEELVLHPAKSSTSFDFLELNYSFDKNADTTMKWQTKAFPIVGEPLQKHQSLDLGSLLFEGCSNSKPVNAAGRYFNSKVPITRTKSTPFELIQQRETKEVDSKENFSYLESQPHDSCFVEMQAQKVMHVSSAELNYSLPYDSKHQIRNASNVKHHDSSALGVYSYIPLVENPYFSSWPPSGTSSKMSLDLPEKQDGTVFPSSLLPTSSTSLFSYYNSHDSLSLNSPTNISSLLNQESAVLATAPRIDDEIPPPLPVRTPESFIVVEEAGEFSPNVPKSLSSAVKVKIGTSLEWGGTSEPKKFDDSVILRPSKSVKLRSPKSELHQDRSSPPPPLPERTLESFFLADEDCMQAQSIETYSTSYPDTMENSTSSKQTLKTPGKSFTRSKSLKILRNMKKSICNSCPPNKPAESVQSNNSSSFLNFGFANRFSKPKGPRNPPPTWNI

[10] = target: Tyrosine-protein phosphatase non-receptor type 12 (Homo sapiens, UniProt Q05209); test: SAR Selectivity Analysis of small molecule inhibitors of PEST using pCAP in a fluorescence assay. [Related pubchem assays (depositor defined):AID1779, AID1784, AID2135]; assay type: functional
Sequence of Tyrosine-protein phosphatase non-receptor type 12 (Q05209 whole entry): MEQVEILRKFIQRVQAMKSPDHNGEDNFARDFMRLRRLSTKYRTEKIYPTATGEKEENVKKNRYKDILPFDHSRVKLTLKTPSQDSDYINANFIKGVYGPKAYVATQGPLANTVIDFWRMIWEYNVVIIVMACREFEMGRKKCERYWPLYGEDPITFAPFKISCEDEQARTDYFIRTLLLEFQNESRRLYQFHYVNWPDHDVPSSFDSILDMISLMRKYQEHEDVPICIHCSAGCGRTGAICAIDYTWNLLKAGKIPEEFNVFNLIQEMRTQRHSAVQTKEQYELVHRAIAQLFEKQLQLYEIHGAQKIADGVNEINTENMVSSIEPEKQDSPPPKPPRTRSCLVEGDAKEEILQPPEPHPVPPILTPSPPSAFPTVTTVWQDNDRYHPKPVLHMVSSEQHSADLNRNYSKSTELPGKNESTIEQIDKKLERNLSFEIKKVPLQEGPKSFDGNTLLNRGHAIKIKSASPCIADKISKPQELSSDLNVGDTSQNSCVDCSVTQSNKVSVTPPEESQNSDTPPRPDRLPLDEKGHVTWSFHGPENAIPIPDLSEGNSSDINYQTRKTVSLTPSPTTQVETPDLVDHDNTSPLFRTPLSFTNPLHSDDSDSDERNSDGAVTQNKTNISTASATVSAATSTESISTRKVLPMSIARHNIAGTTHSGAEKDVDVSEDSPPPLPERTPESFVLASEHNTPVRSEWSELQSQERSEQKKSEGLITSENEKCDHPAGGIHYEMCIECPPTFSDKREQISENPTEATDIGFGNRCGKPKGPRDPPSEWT

[11] = target: T3, Tyrosine-protein phosphatase non-receptor type 22; test: SAR LYP1 Fluorescent Assay using OMFP substrate for In Vitro dose response studies - Set 3. [Related pubchem assays (depositor defined):AID1779, AID1784, AID2140, AID2686]; assay type: functional
[12] = target: T4, Tyrosine-protein phosphatase non-receptor type 7 (Homo sapiens, UniProt P35236); test: HePTP (PTPN7) phosphatase inhibitor potency, SAR follow-up, biochemical, set 2 (AID 449736); assay type: functional
T4 sequence (P35236 whole entry): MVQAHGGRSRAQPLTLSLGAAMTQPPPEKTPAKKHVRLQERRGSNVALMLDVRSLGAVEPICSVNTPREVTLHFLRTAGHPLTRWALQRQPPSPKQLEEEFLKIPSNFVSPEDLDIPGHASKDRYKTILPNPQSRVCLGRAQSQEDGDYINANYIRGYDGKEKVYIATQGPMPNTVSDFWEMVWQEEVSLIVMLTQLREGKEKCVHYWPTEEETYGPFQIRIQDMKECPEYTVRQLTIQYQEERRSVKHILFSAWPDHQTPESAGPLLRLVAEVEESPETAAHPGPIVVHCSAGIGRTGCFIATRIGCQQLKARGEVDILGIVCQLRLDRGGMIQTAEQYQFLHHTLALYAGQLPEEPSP

[13] = target: T3, Tyrosine-protein phosphatase non-receptor type 22; test: LYP (PTPN22) phosphatase inhibitor potency, SAR follow-up, biochemical, pCAP fluorogenic substrate, fluorescence, set 3 (AID 449727); assay type: functional
[14] = target: T3, Tyrosine-protein phosphatase non-receptor type 22; test: SAR LYP1 Fluorescent Assay using OMFP substrate for In Vitro dose response studies - Set 2. [Related pubchem assays (depositor defined):AID1779, AID1784, AID2140, AID449726, AID488869]; assay type: functional

Sequence of Hexokinase HKDC1 (Q2TB90 whole entry): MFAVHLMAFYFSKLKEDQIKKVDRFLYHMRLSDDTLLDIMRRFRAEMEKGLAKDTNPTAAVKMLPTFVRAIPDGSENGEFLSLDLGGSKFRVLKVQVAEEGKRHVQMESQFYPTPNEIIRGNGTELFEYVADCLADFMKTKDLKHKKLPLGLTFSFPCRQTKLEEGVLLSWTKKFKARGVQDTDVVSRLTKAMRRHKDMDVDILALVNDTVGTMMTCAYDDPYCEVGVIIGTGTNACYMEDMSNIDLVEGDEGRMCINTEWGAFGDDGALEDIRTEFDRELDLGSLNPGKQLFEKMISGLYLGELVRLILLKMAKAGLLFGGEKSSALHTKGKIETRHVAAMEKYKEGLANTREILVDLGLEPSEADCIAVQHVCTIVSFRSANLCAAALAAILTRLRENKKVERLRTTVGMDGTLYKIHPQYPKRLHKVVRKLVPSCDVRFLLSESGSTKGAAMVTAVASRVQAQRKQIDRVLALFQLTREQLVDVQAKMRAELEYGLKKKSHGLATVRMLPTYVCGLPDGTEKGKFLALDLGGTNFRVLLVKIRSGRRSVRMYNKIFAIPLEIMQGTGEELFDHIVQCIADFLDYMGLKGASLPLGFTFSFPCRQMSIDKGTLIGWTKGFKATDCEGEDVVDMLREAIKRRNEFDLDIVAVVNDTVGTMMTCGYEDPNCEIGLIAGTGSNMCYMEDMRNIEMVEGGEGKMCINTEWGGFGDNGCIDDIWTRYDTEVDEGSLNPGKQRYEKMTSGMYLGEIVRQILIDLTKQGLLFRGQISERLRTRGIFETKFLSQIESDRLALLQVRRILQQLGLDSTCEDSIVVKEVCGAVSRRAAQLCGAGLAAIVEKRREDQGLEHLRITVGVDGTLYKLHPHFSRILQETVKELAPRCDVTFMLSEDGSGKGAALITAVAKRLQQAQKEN

EC50 (Hexokinase HKDC1): 19.4 µM (active)
EC50 (Hexokinase-1): 21.1 µM (inactive)
Structure (SMILES): CCOC(=O)c1c(C)[nH]c(C2=NN=C(Nc3ccc(OCC)cc3)SC2)c1C

Structure (SMILES): Cc1ccc(/C=C(\C#N)C(=O)Nc2cccc3ncccc23)o1
IC50 [1]: 26.6 µM (active)
IC50 [2]: 23.6 µM (active)
IC50 [3]: 17.4 µM (active)
IC50 [4]: > 25 µM (inactive)
AC50 [5]: 0.701 µM (active)

EC50 [6]: 42.8 µM (active)
EC50 [7]: 20.5 µM (active)
EC50 [8]: 39.6 µM (active)
Structure (SMILES): COc1ccc(NC(=O)CCNS(=O)(=O)c2ccc3[nH]c(=O)oc3c2)cc1Cl

IC50 [9]: > 100 µM (inactive)
IC50 [10]: > 100 µM (inactive)
IC50 [11]: > 100 µM (inactive)
IC50 [12]: > 100 µM (inactive)
IC50 [13]: > 100 µM (inactive)
IC50 [14]: > 100 µM (inactive)
Structure (SMILES): O=C(O)COc1ccc(NC(=O)COc2ccc(Cl)cc2)cc1
